{"source": "paper PMC9694334", "about": "“Synthesis and Biological Evaluation of a Fused Structure of Indolizine and Pyrrolo[1,2-c]pyrimidine: Identification of Its Potent Anticancer Activity against Liver Cancer Cells” (Pharmaceuticals, 2022)", "format_in_all_cases": "cell-based", "key": {"HepG2 cells": {"tested_on": "HepG2 cells", "assay": "Combination of 5r with gemcitabine, cell viability (MTS) in HepG2 cells", "details": "co-treatment with gemcitabine (0.3 μM), 72 h", "protocol": "(§1) Cell viability assay was conducted using Cell Titer 96® AQueous One Solution Cell proliferation Assay kit (Promega, Madison, WI, USA). Five cancer cells and HaCaT cells were plated in 96-well microplates with growth medium for 24 h. When cell confluency reached ~30%, cells were treated with DMSO (vehicle) and test compounds. The medium and test compounds were replaced every 24 h. To measure cell viability, the cells were incubated with MTS solution for 1 h. The absorbance was measured by using Infinite M200 microplate reader (Tecan, Männedorf, Switzerland) at 490 nm.\n(§2) Figure 6 Combination effect of 5r and gemcitabine on cell viability in HepG2 and Huh7 cells. (A,B) HepG2 and Huh7 cells were cultured with the indicated concentrations of 5r and gemcitabine (0.3 μM) for 72 h, and medium was replaced every 24 h with freshly added 5r and gemcitabine. Cell viability was determined by MTS analysis (mean ± S.D., n = 5). ** p < 0.01, *** p < 0.001."}, "Huh7 cells [1]": {"tested_on": "Huh7 cells", "assay": "Combination of 5r with gemcitabine, cell viability (MTS) in Huh7 cells", "details": "co-treatment with gemcitabine (0.3 μM), 72 h", "protocol": "as §1, §2"}, "cleaved PARP": {"tested_on": "cleaved PARP", "assay": "Western blot analysis of cleaved PARP in HepG2 cells", "details": "24 h, Figure 4E,G", "protocol": "For Western blot analysis, HepG2 and Huh7 cells were lysed with RIPA buffer (50 mM Tris-HCl, PH 7.4, 1% Nonidet P-40, 0.25% sodium deoxycholate, 150 mM NaCl, 1 mM EDTA, 1 mM Na3VO4, and protease inhibitor). Lysed samples were centrifuged at 13,000 RPM for 20 min at 4 °C to remove the cell debris, and equal amounts (60 μg protein/lane) of supernatant protein were divided by 4–12% Tris Glycine Precast Gel (KOMA BIOTECH, Seoul, Korea). Then, PVDF membranes (Millipore, Billerica, MA, USA) were used to transfer the separated proteins. Membrane blocking was performed by Tris-buffered saline with 0.1% Tween 20 (TBST) containing 5% bovine serum albumin (BSA) at room temperature for 50 min. The membranes were incubated with primary antibodies overnight at 4 °C with the indicated primary antibodies: anti-cleaved PARP (BD Biosciences) and anti-β-actin (Santa Cruz Biotechnology, Dallas, TX, USA). […] After 1 h, membranes were detected by using ECL Plus Western blotting detection system (GE Healthcare, Piscataway, NJ, USA).\nFigure 4 Effect of 5r on activity of caspase-3 and cleavage of PARP in HepG2 and Huh7 cells. […] (E,F) Cells were cultured with 5r at the indicated concentrations for 24 h, and expression level of PARP, cleaved-PARP and β-actin were measured by Western blot analysis. […]"}, "H1299 cells": {"tested_on": "H1299 cells", "assay": "Cell viability assay (MTS) in H1299 cells", "details": "72 h, MTS, Figure 2D", "protocol": "(§3) HepG2, Huh7, H1299, HT29, AGS and A549 cells were purchased from the Korean Cell Line Bank (Seoul, Korea) and HaCaT cells were obtained from Prof. Sohee Kwon (Yonsei University, Korea). Liver cancer cells (HepG2), human keratinocyte cells (HaCaT), and lung cancer cells (A549) were grown in DMEM high-glucose medium, liver cancer cells (Huh7) and non-small cell lung cancer cells (H1299) were grown in RPMI 1640, and gastric cancer cells (AGS) were grown in Coon’s modified F12 medium. All media were supplemented with 10% FBS, 100 Units/mL penicillin, and 100 μg/mL streptomycin. All cells were incubated at 37 °C, 5% CO2 and 95% humidity.\nas §1\n(§4) Figure 2 Effect of 5r on cell viability in HepG2, Huh7, AGS, H1299, A549, HaCaT, NIH3T3, and HEK293T cells. (A–H) HepG2, Huh7, AGS, H1299, A549, HaCaT, NIH3T3, and HEK293T cells were cultured with 5r at the indicated concentrations for 72 h, and medium was replaced every 24 h with freshly added 5r. Cell viability was measured by MTS analysis (mean ± S.D., n = 5). * p < 0.05, ** p < 0.01, *** p < 0.001."}, "caspase-3": {"tested_on": "caspase-3", "assay": "Caspase-3 activity assay in HepG2 cells", "details": "3 µM 5r for 24 h, Figure 4A", "protocol": "HepG2 and Huh7 cells were plated in 96-black-well plate to about 40% confluence, and then 5r was treated for 24 h. To assess activity of caspase-3, the growth medium was changed with 100 μL of PBS containing 1 μM caspase-3 substrate, NucView 488, and incubated at room temperature. After 20 min, 1 μM Hoechst 33342 was treated to stain the cells. Activity of caspase-3 was suppressed by Ac-DEVD-CHO, a selective caspase-3 inhibitor. FLUOstar Omega microplate reader (BMG Labtech, Ortenberg, Germany) was used to assess the fluorescence of NucView 488 and Hoechst, and Lionheart FX Automated Microscope (BioTek, Winooski, VT, USA) was used to acquire the fluorescence microscopy images.\nFigure 4 Effect of 5r on activity of caspase-3 and cleavage of PARP in HepG2 and Huh7 cells. (A,B) HepG2 and Huh7 cells were incubated with 3 µM 5r for 24 h and then incubated with 1 µM caspase-3 substrate (green) and 1 µM Hoechst 33,342 (blue) for 20 min before image acquisition. (C,D) Cells were cultured with 5r at the indicated concentrations for 24 h and then 1 μM caspase-3 substrate was treated for 20 min. Caspase-3 was inhibited by 20 μM Ac-DEVD-CHO (mean ± S.D., n = 3). (E,F) Cells were cultured with 5r at the indicated concentrations for 24 h, and expression level of PARP, cleaved-PARP and β-actin were measured by Western blot analysis. […]"}, "NIH3T3 cells": {"tested_on": "NIH3T3 cells", "assay": "Cell viability assay (MTS) in NIH3T3 cells", "details": "72 h, Figure 2G", "protocol": "as §1, §4"}, "A549 cells": {"tested_on": "A549 cells", "assay": "Cell viability assay (MTS) in A549 cells", "details": "72 h, MTS, Figure 2E", "protocol": "as §3, §1, §4"}, "Huh7 cells [2]": {"tested_on": "Huh7 cells", "assay": "In vitro wound-healing assay in Huh7 cells", "details": "Figure 3", "protocol": "The suppressive effect of 5r on cell migration was assessed through in vitro wound-healing assay. HepG2 and Huh7 cells were grown to approximately 100% confluence to form a monolayer in a 96-well microplate. Wounds were formed through 96-well wound maker (Essen BioScience, Ann Arbor, MI, USA). Then, growth medium was removed and washed out twice with phosphate-buffered saline (PBS) and incubated with 200 μL of DMEM and RPMI 1640 medium containing 5r or vehicle (DMSO). Images of the wound area were taken by using IncuCyte ZOOM (Essen BioScience, Ann Arbor MI, USA), and the percentage of wound closure was measured by using IncuCyte software.\nFigure 3 Inhibitory effect of 5r on cell migration in HepG2 and Huh7 cells. (A,B) In vitro wound-healing assay was performed in HepG2 and Huh7 cells (mean ± S.D., n = 3). HepG2 and Huh7 cells were treated with the indicated concentrations of 5r, and time-lapse images were acquired every 2 h after wound infliction. (C,D) Representative images were taken at 0, 48, or 72 h following administration of 5r at the indicated concentrations."}}}
{"smiles": "N#Cc1c2c3cccn3c(-c3ccccc3O)nc2n2ccccc12", "note": "[Compound 5r, 5-(2-Hydroxyphenyl)pyrrolo[1′,2′:1,6]pyrimido[5,4-b]indolizine-12-carbonitrile]", "values": [{"measurement": "Combination effect with gemcitabine on cell viability in HepG2 cells", "setting": "HepG2 cells", "value": "additional effect rather than a synergistic effect"}, {"measurement": "Combination effect with gemcitabine on cell viability in Huh7 cells", "setting": "Huh7 cells [1]", "value": "additional effect rather than a synergistic effect"}, {"measurement": "Expression level of cleaved PARP in HepG2 cells", "setting": "cleaved PARP", "value": "increased the expression level of cleaved PARP in a dose-dependent manner"}, {"measurement": "Effect on cell viability in H1299 cells", "setting": "H1299 cells", "value": "weak effect"}, {"measurement": "Caspase-3 activity in HepG2 cells", "setting": "caspase-3", "value": "potently increased caspase-3 activity"}, {"measurement": "Effect on cell viability in non-cancerous NIH3T3 cells", "setting": "NIH3T3 cells", "value": "weakly decreased cell viability"}, {"measurement": "Effect on cell viability in A549 cells", "setting": "A549 cells", "value": "weak effect"}, {"measurement": "Effect on cell migration (wound closure) in Huh7 cells", "setting": "Huh7 cells [2]", "value": "significantly inhibited cell migration in a dose-dependent manner"}]}
